The nature of data set [1]: The drug is tested on Bacteroides sp. WH2 strain: WH2 for biotransformation. The drug concentrations were measured before and after a 12-h incubation by liquid-chromatography-coupled mass spectrometry (LC–MS). Particulars: bacteroides sp. wh2, 12 h, 2 µM.
The nature of data set [2]: The drug is tested on Clostridium symbiosum strain: ATCC14940 for biotransformation. The drug concentrations were measured before and after a 12-h incubation by liquid-chromatography-coupled mass spectrometry (LC–MS). Particulars: 2 µM.
For data set [3] the following is noted: bacteroides fragilis, 12 h, 2 µM.
Description: The drug is tested on Bacteroides fragilis strain: DS-208 for biotransformation. The drug concentrations were measured before and after a 12-h incubation by liquid-chromatography-coupled mass spectrometry (LC–MS)
The nature of data set [4]: The drug is tested on Subdoligranulum variabile strain: DSM15176 for biotransformation. The drug concentrations were measured before and after a 12-h incubation by liquid-chromatography-coupled mass spectrometry (LC–MS). Particulars: 2 µM.
The conditions of data set [5]: segatella copri, 12 h, 2 µM.
Description: The drug is tested on Prevotella copri strain: DSM18205 for biotransformation. The drug concentrations were measured before and after a 12-h incubation by liquid-chromatography-coupled mass spectrometry (LC–MS)
The conditions of data set [6]: bacteroides thetaiotaomicron, 12 h, 2 µM.
Description: The drug is tested on Bacteroides thetaiotaomicron strain: VPI-5482 for biotransformation. The drug concentrations were measured before and after a 12-h incubation by liquid-chromatography-coupled mass spectrometry (LC–MS)
The nature of data set [7]: The drug is tested on Bacteroides uniformis strain: ATCC8492 for biotransformation. The drug concentrations were measured before and after a 12-h incubation by liquid-chromatography-coupled mass spectrometry (LC–MS). Conditions: 2 µM.
Data set [8] can be described thus: The drug is tested on Bacteroides finegoldii strain: DSM17565 for biotransformation. The drug concentrations were measured before and after a 12-h incubation by liquid-chromatography-coupled mass spectrometry (LC–MS). Particulars: 2 µM.
Data set [9] in a line: The drug is tested on Anaerotruncus colihominis strain: DSM17241 for biotransformation. The drug concentrations were measured before and after a 12-h incubation by liquid-chromatography-coupled mass spectrometry (LC–MS). Particulars: 2 µM.
A short description of data set [10]: The drug is tested on Bacteroides fragilis strain: ATCC43859 for biotransformation. The drug concentrations were measured before and after a 12-h incubation by liquid-chromatography-coupled mass spectrometry (LC–MS). Particulars: 2 µM.
Data set [11] is described as follows: The drug is tested on Providencia rettgeri strain: DSM1131 for biotransformation. The drug concentrations were measured before and after a 12-h incubation by liquid-chromatography-coupled mass spectrometry (LC–MS). Format: ADME. On the set-up: dose 2 uM, timepoint 0 vs 12 hours. Particulars: 2 µM.
Data set [12] in a line: The drug is tested on Collinsella intestinalis strain: DSM13280 for biotransformation. The drug concentrations were measured before and after a 12-h incubation by liquid-chromatography-coupled mass spectrometry (LC–MS). Particulars: 2 µM.
Data set [13] in a line: The drug is tested on Parabacteroides merdae strain: ATCC43184 for biotransformation. The drug concentrations were measured before and after a 12-h incubation by liquid-chromatography-coupled mass spectrometry (LC–MS). Particulars: 2 µM.
A short description of data set [14]: The drug is tested on Enterococcus faecalis strain: V583 for biotransformation. The drug concentrations were measured before and after a 12-h incubation by liquid-chromatography-coupled mass spectrometry (LC–MS). Particulars: 2 µM.
Data set [15] can be described thus: The drug is tested on Bacteroides caccae strain: ATCC43185 for biotransformation. The drug concentrations were measured before and after a 12-h incubation by liquid-chromatography-coupled mass spectrometry (LC–MS). Conditions: 2 µM.
The conditions of data set [16]: bacteroides thetaiotaomicron, 12 h, 2 µM. This is another data set of the same source.
Description: The drug is tested on Bacteroides thetaiotaomicron strain: 7330 for biotransformation. The drug concentrations were measured before and after a 12-h incubation by liquid-chromatography-coupled mass spectrometry (LC–MS)
A short description of data set [17]: The drug is tested on Anaerococcus hydrogenalis strain: DSM7454 for biotransformation. The drug concentrations were measured before and after a 12-h incubation by liquid-chromatography-coupled mass spectrometry (LC–MS). Particulars: 2 µM.
A short description of data set [18]: The drug is tested on Escherichia coli strain: BW25113 for biotransformation. The drug concentrations were measured before and after a 12-h incubation by liquid-chromatography-coupled mass spectrometry (LC–MS). Particulars: 2 µM.
For data set [19] the following is noted: bacteroides eggerthii, 12 h, 2 µM.
Description: The drug is tested on Bacteroides eggerthii strain: DSM20697 for biotransformation. The drug concentrations were measured before and after a 12-h incubation by liquid-chromatography-coupled mass spectrometry (LC–MS)
For data set [20] the following is noted: limosilactobacillus reuteri cf48-3a, 12 h, 2 µM.
Description: The drug is tested on Lactobacillus reuteri CF48-3A strain: BEI HM-102 for biotransformation. The drug concentrations were measured before and after a 12-h incubation by liquid-chromatography-coupled mass spectrometry (LC–MS)

The source of these data is ChEMBL document CHEMBL5303573, “Mapping human microbiome drug metabolism by gut bacteria and their genes” (Nature, 2019).

Structures are written as SMILES.

Take `CCC(COC(=O)c1cc(OC)c(OC)c(OC)c1)(c1ccccc1)N(C)C.O=C(O)/C=C\C(=O)O` (centres undefined): the “Bacterial Biotransformation” value in data set [1] is reported as “Compound metabolized”; in [2], “Compound metabolized”; in [3] it was “Compound NOT metabolized”; in data set [4], “Compound metabolized”; in data set [5], “Compound metabolized”; in [6] it was “Compound metabolized”. The “Bacterial Biotransformation” value was “Compound metabolized” in [7]; “Compound metabolized” in [8]; “Compound metabolized” in data set [9]; “Compound NOT metabolized” in data set [10]; “Compound NOT metabolized” in [11]; “Compound metabolized” in data set [12]. The “Bacterial Biotransformation” value is given as “Compound metabolized” in data set [13]; “Compound metabolized” in data set [14]; “Compound NOT metabolized” in [15]; “Compound metabolized” in [16]; “Compound metabolized” in data set [17]; “Compound metabolized” in [18]. The “Bacterial Biotransformation” value in [19] is “Compound NOT metabolized”; in data set [20], “Compound metabolized”.
Turning to `O=C(NCc1ccccc1)OCCO` [BURAMATE], the “Bacterial Biotransformation” value in data set [1], in data set [2], in data set [3], in [4], in [5] and in data set [6] was “Compound NOT metabolized” throughout. In addition, the “Bacterial Biotransformation” value in [7], in data set [8], in data set [9], in [10], in data set [11] and in [12] was “Compound NOT metabolized” throughout. Moreover, the “Bacterial Biotransformation” value in data set [13], in data set [14], in data set [15], in [16], in data set [18] and in data set [19] was “Compound NOT metabolized” throughout. The “Bacterial Biotransformation” value in data set [20] is “Compound NOT metabolized”.
On to `C[C@]12C=CC(=O)C=C1CC[C@@H]1[C@@H]2C(=O)C[C@@]2(C)[C@H]1CC[C@]2(O)C(=O)CO` [PREDNISONE], for which the “Bacterial Biotransformation” value in data set [1], in data set [2], in data set [3], in data set [4], in [5] and in data set [6] was “Compound NOT metabolized” throughout. Also, the “Bacterial Biotransformation” value in [7], in data set [8], in data set [9], in data set [10], in data set [11] and in data set [12] was “Compound NOT metabolized” throughout. In addition, the “Bacterial Biotransformation” value in [13], in data set [14], in data set [15], in [16], in [17] and in data set [18] was “Compound NOT metabolized” each time. Further, the “Bacterial Biotransformation” value in data set [19] and in data set [20] was “Compound NOT metabolized” each time.
Turning to `CN[C@H]1CC[C@@H](c2ccc(Cl)c(Cl)c2)c2ccccc21` [SERTRALINE], the “Bacterial Biotransformation” value in [1], in [2], in data set [3], in [4], in data set [5] and in [6] was “Compound NOT metabolized” each time. In addition, the “Bacterial Biotransformation” value in data set [7], in data set [8], in data set [9], in [10], in data set [11] and in [12] was “Compound NOT metabolized” throughout. Also, the “Bacterial Biotransformation” value in [13], in data set [14], in data set [15], in data set [16], in data set [17] and in data set [18] was “Compound NOT metabolized” in each case. The “Bacterial Biotransformation” value in [19] and in data set [20] was “Compound NOT metabolized” throughout.
In the case of `CCOc1ccccc1OCCN[C@H](C)Cc1ccc(OC)c(S(N)(=O)=O)c1.Cl` [TAMSULOSIN HYDROCHLORIDE], the “Bacterial Biotransformation” value in data set [1], in [2], in [3], in data set [4], in data set [5] and in data set [6] was “Compound NOT metabolized” throughout. Besides, the “Bacterial Biotransformation” value in data set [7], in [8], in data set [9], in data set [10], in data set [11] and in data set [12] was “Compound NOT metabolized” throughout. The “Bacterial Biotransformation” value in [13], in data set [14], in data set [15], in data set [16], in [17] and in data set [18] was “Compound NOT metabolized” throughout. Moreover, the “Bacterial Biotransformation” value in data set [19] and in data set [20] was “Compound NOT metabolized” in each case.
On to `CN(C/C=C/C#CC(C)(C)C)Cc1cccc2ccccc12` [TERBINAFINE], for which the “Bacterial Biotransformation” value in data set [1], in data set [2], in data set [3], in data set [4], in [5] and in [6] was “Compound NOT metabolized” each time. Moreover, the “Bacterial Biotransformation” value in data set [7], in data set [8], in data set [9], in [10], in data set [11] and in data set [12] was “Compound NOT metabolized” in each case. The “Bacterial Biotransformation” value in [13], in data set [14], in data set [15], in data set [16], in data set [17] and in data set [18] was “Compound NOT metabolized” throughout. Also, the “Bacterial Biotransformation” value in [19] and in data set [20] was “Compound NOT metabolized” each time.
